System: C. albicans biofilm formation
Assay: Biofilm assay (crystal violet, 96-well plate)
Format: cell-based, Candida albicans
Protocol: C. albicans (MEN, serotype B, clinical isolate from a corneal infection) was maintained on sabouraud dextrose agar, and cultures were grow to the stationary phase ((1–2) × 10^8 cells/mL) overnight in YEPD broth (1% (w/v) yeast extract, 2% (w/v) bacteriological peptone, 2% (w/v) glucose) at 30 °C, and 200 rpm. Stationary phase yeast cells were harvested, washed with PBS, and resuspended at a density of 1 × 10^8 cells/mL in PBS.
C. albicans cells were washed twice with PBS and enumerated before being resuspended in RPMI to give a cell density of (2 × 10^7 cells/mL). Compounds were resuspended in PBS to give a concentration of 2 mg/mL. The compounds (250 μL) were mixed with RPMI (250 μL) in a 1:1 ratio to give a concentration of 1 mg/mL. PBS (250 μL) was mixed with RPMI (250 μL).
C. albicans cells (500 μL, 2 × 10^7 cells/mL) were incubated with compounds (1 mg/mL) in a 1:1 ratio to give a final cell density to concentration ratio of […]. The suspension was incubated for 3 h at rt and mixed by vortex every 20 min to prevent cells from falling out of solution. Cell suspension (100 μL) was added to wells of a 96-well flat bottom plate. The plate was incubated at 37 °C for 24 h. […] The plate was read at 550 nm in a 96-well plate reader. The percentage reduction in biofilm was calculated by dividing the absorbance value of the treated cells into that of the control.

O=C[C@H](O)[C@@H](O)[C@@H](O)[C@H](O)CO [D-galactose]
% Change in biofilm formation (Figure 4, relative to PBS control, compound 1 mg/mL mixed 1:1 with cells, 24 h at 37 °C, crystal violet, 550 nm, error: standard deviation): 114%
effect on biofilm formation (in words) (biofilm growing conditions, positive control): promoted the formation of the biofilm

Reference: article PMC8154258, “Multivalent Presentations of Glycomimetic Inhibitor of the Adhesion of Fungal Pathogen Candida albicans to Human Buccal Epithelial Cells” (Bioconjugate Chemistry, 2021)
